Here are results for two molecules from ChEMBL document CHEMBL1145717, “Nostopeptins A and B, Elastase Inhibitors from the Cyanobacterium Nostoc minutum” (J Nat Prod, 1997).

As usually defined, the IC50 is the concentration that inhibits the measured activity by half. Low readings indicate inhibition by little substance, high ones a need for much substance.

In brackets after ≈: the same amount, converted by molar mass. Activity calls are given as the source filed them. The calls are words filed in the database; no cut-off is given here.

For experiment [1], the target named is Plasminogen (Homo sapiens) (UniProt P00747). Kind of experiment: Inhibition of plasmin at 100 ug/ml.
Experiment [2] can be described thus: Inhibition of chymotrypsin.
In a further experiment the target is T1, Papain (Carica papaya) (UniProt P00784).
T1 sequence (whole entry): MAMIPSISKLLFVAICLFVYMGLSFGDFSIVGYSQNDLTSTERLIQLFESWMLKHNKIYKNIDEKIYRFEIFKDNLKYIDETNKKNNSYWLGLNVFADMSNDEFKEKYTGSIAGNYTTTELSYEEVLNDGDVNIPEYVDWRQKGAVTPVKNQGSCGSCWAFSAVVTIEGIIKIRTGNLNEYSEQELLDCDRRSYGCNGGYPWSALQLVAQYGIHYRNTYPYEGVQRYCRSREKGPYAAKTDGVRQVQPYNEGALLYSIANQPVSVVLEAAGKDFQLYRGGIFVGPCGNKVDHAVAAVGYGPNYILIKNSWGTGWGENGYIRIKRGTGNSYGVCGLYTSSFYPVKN
The experiment can be described thus: Inhibition of papaya papain at 100 ug/ml.

The nature of experiment [3]: Inhibition of elastase.
The nature of experiment [4]: Inhibition of trypsin at 100 ug/ml.
Experiment [5] addresses Prothrombin (Homo sapiens) (UniProt P00734). The experiment can be described thus: Inhibition of thrombin at 100 ug/ml.

Plasminogen (Homo sapiens), sequence (P00747 97-580 limits assumed): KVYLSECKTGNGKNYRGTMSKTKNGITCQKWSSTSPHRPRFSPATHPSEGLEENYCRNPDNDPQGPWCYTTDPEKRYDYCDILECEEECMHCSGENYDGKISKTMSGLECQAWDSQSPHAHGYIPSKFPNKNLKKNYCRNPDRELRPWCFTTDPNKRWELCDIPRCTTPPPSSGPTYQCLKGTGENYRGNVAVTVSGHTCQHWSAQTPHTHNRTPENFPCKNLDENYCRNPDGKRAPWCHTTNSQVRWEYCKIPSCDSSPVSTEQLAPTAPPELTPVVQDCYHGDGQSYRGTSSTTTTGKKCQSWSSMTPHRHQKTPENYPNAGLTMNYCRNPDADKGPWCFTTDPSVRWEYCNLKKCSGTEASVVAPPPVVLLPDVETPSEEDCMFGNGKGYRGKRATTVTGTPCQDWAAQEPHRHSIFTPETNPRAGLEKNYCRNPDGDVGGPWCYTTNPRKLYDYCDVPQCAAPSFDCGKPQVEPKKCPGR
Plasminogen (Homo sapiens), sequence (P00747 581-810 limits assumed): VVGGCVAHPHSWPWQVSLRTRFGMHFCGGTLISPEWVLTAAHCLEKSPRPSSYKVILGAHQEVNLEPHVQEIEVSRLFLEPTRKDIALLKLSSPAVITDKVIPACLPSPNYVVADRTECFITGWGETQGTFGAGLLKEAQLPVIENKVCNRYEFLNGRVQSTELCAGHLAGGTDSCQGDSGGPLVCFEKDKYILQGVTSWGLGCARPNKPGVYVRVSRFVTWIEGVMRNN

With `CCCC(=O)N[C@@H](CCC(N)=O)C(=O)N1CC(C)C2OC(=O)[C@H]([C@@H](C)CC)NC(=O)[C@H](Cc3ccc(O)cc3)N(C)C(=O)[C@H]([C@@H](C)CC)N3C(=O)C(CCC3O)NC(=O)[C@H](CC(C)C)NC(=O)[C@H]21` (some centres not stated) [NOSTOPEPTIN A], the result (in experiment [1]; on Papain (Carica papaya); in experiment [4]; in experiment [5]) was inactive. For the same molecule, the IC50 in experiment [2] turned out to be 1.4 µg/mL (≈ 1.47 µM); in experiment [3], 1.3 µg/mL (≈ 1.36 µM).

As for `CC[C@H](C)[C@@H]1NC(=O)[C@H](Cc2ccc(O)cc2)N(C)C(=O)[C@H]([C@@H](C)CC)N2C(=O)C(CCC2O)NC(=O)[C@H](CC(C)C)NC(=O)[C@@H]2C(OC1=O)C(C)CN2C(=O)[C@H](CCC(N)=O)NC(C)=O` (some centres not stated) [NOSTOPEPTIN B], the result (in experiment [1]; at Papain (Carica papaya); in experiment [4]; in experiment [5]) was inactive. Also, the IC50 in experiment [2] turned out to be 1.6 µg/mL (≈ 1.73 µM); in experiment [3], 11 µg/mL (≈ 11.9 µM).
